In paper PMC9321663, “The DevTox Germ Layer Reporter Platform: An Assay Adaptation of the Human Pluripotent Stem Cell Test” (Toxics, 2022):
Like-named read-outs stand apart in the source and are kept apart here. Values belong to the compound of their own block, whether it stands above or below them.

Columns and labels:
[1] = DevTox GLR-Endo assay: decrease in total cell count, cytotoxicity (AEID 3098, CellCount_dn); details: human
RUES2-GLR cells = assay: as above; details: for Emax: Homo sapiens, read-out: Cell Count % Max Inhibition
[2] = system: BRA (mesoderm marker) in RUES2-GLR cells; assay: DevTox GLR-Endo assay: increase in percent BRA-positive cells (AEID 3096, Bra_up); assay type: cell-based, human; details: for HIT−CALL: tcpl plot AEID3096, COFF 0.774; for MAX_MEAN: tcpl plot AEID3096, maximum mean response; for MAX_MED: tcpl plot AEID3096, maximum median response
Procedure: (§1) The total test chemical incubation period was 48 h.
(§2) (Supplementary Materials).

H9 human ESC line = details: cited from earlier work
[3] = system: SOX17 in H9 human ESC line; details: SOX17 half-maximal inhibition concentration; read-out: hPST IC50; cited from earlier work
[4] = system: SOX2 (ectoderm and pluripotency marker) in RUES2-GLR cells; assay: DevTox GLR-Endo assay: increase in percent SOX2-positive cells (AEID 3095, Sox2_up); details: for MAX_MEAN: tcpl plot AEID3095, maximum mean response; for MAX_MED: tcpl plot AEID3095, maximum median response; for AC50 / Emax: Homo sapiens; for AC50: read-out: ga (winning model); for Emax: read-out: tp (winning model)
[5] = system: SOX17 (endoderm marker) in RUES2-GLR cells; assay: DevTox GLR-Endo assay: increase in percent SOX17-positive cells (AEID 3093, Sox17_up); assay type: cell-based, human; details: for Emax: Homo sapiens; for HIT−CALL: tcpl plot AEID3093, COFF 20.3
Procedure: as §1, §2

[6] = system: SOX17 (endoderm marker) in RUES2-GLR cells; assay: DevTox GLR-Endo assay: decrease in percent SOX17-positive cells (AEID 3094, Sox17_dn); details: for Hit Call: Table S2, SOX17-positive cells, cutoff 3*bmad; for DevTox ACC: Table S2, percent SOX17-positive cells; for HIT−CALL: tcpl plot AEID3094, COFF 20.3; for hit call designation (in words): DevTox GLR-Endo prediction against developmental toxicant classification
How it was run: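 RUES2-GLR cells under endoderm differentiation exposed to test chemicals for 48 h in total, with 0.2% DMSO solvent control and SB431542 (1 µM) as developmental-toxicant control. Endpoints: decrease in total cell count and in percent SOX17-positive cells; n = 4 biological replicates minimum.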

[7] = cited from earlier work; for Development Toxicant Classification: Table S2; for Classification: developmental toxicant classification (Teratogen / Non-Teratogen) of reference and training chemicals, ref DOI per chemical: 10.1093/toxsci/kft239, 10.1093/toxsci/kfaa014, 10.1177/026119290203000204, 10.1038/s41598-020-59542-x; for DT Class.: developmental toxicant classification
[8] = RUES2-GLR cells under directed endoderm differentiation
[9] = cytotoxicity half-maximal concentration
[10] = tcpl plot AEID3093, maximum mean response, read-out: MAX_MEAN
[11] = tcpl plot AEID3093, maximum median response, read-out: MAX_MED
[12] = Homo sapiens, 48 h, read-out: DevTox-GLR Endo AC50 (µM), SOX17 half-maximal activity concentration, 48 h exposure
[13] = Homo sapiens, read-out: DevTox % Max Inhibition
[14] = Homo sapiens, read-out: MAX_MEAN
[15] = Homo sapiens, read-out: MAX_MED
[16] = Homo sapiens, read-out: ga (winning model), tcpl plot AEID3094, gain parameter of winning curve fit (log concentration, µM axis), hit calls only (converted)
[17] = Homo sapiens, read-out: tp (winning model)
[18] = read-out: DevTox-GLR Endo AC50, SOX17 half-maximal activity concentration, 48 h exposure

SMILES: Oc1cc(O)c2c(c1)O[C@H](c1ccc(O)c(O)c1)[C@@H](O)C2 [Cianidanol]
CC50 at 48 h [1, 8]: 194 µM
Emax (RUES2-GLR cells): 29.6%
Cell Count ACC (RUES2-GLR cells; human, 48 h): 180.189 µM
HIT−CALL [2]: 0
MAX_MEAN [2]: 1.32 Percent Activity
MAX_MED [2]: 1.37 Percent Activity
hPST TC50 (H9 human ESC line; [9]): 200 µM
hPST TC50 (H9 human ESC line; hPST cytotoxicity): 200 µM
IC50 [3]: 97 µM
MAX_MEAN [4]: 0.447 Percent Activity
MAX_MED [4]: 0.456 Percent Activity
Emax [5, 10]: 6.18%
Emax [5, 11]: 7.45%
HIT−CALL [5]: 0
SOX17 ACC relative to cytotoxic concentration (in words) [6]: below cytotoxic concentrations
hit call designation (in words) [6]: false positive
AC50 [6, 12]: 93 µM
Emax [6, 13]: 39.8%
Emax [6, 14]: 39.3%
Emax [6, 15]: 39.8%
AC50 [6, 16]: 93.3 µM
Emax [6, 17]: 39.4%
Hit Call [6]: Positive
DevTox ACC ([6]; 48 h exposure): 93.5186 µM
AC50 [6, 18]: 92.9 µM
HIT−CALL [6]: 1
Development Toxicant Classification [7]: Negative
DT Class. ([7]; chemicals common with hPST): Neg

SMILES: O=C(c1ccc(F)cc1)C1CCN(CCn2c(=O)[nH]c3ccccc3c2=O)CC1 [Ketanserin]
CC50 at 48 h [1]: 57.5 µM
Emax (RUES2-GLR cells): 68.7%
Cell Count ACC (RUES2-GLR cells; human, 48 h): 33.5346 µM
HIT−CALL [2]: 0
MAX_MEAN [2]: 1.82 Percent Activity
MAX_MED [2]: 2.05 Percent Activity
hPST TC50 (H9 human ESC line; [9]): >200 µM
hPST TC50 (H9 human ESC line; hPST cytotoxicity): > 200 µM
IC50 [3]: > 200 µM
MAX_MEAN [4]: 1.16 Percent Activity
MAX_MED [4]: 1.15 Percent Activity
Emax [5, 10]: 5.18%
Emax [5, 11]: 5.62%
HIT−CALL [5]: 0
hit call designation (in words) [6]: false positive
AC50 [6, 12]: 36.6 µM
Emax [6, 13]: 33.3%
Emax [6, 14]: 36.9%
Emax [6, 15]: 33.3%
AC50 [6, 16]: 36.3 µM
Emax [6, 17]: 31.8%
Hit Call [6]: Positive
DevTox ACC ([6]; 48 h exposure): 39.2719 µM
HIT−CALL [6]: 1
Development Toxicant Classification [7]: Negative
Classification [7]: Non-Teratogen
DT Class. ([7]; chemicals common with hPST): Neg

SMILES: Cc1nc2sccn2c(=O)c1CCN1CCC(=C(c2ccc(F)cc2)c2ccc(F)cc2)CC1 [Ritanserin]
CC50 at 48 h [1, 8]: 9.47 µM
Emax (RUES2-GLR cells): 94.7%
Cell Count ACC (RUES2-GLR cells; Table S2, 48 h exposure): 6.426 µM
HIT−CALL [2]: 1
MAX_MEAN [2]: 2.65 Percent Activity
MAX_MED [2]: 3.04 Percent Activity
hPST TC50 (H9 human ESC line; [9]): 27 µM
hPST TC50 (H9 human ESC line; hPST cytotoxicity): 27 µM
IC50 [3]: 7.3 µM
AC50 [4]: 158 µM
Emax [4]: 4.15%
MAX_MEAN [4]: 2.33 Percent Activity
MAX_MED [4]: 1.82 Percent Activity
Emax [5, 10]: -0.644%
Emax [5, 11]: -1.38%
HIT−CALL [5]: 0
AC50 [6, 12]: 9.98 µM
Emax [6, 13]: 102%
Emax [6, 14]: 102%
Emax [6, 15]: 102%
AC50 [6, 16]: 9.98 µM
Emax [6, 17]: 102%
Hit Call [6]: Positive
DevTox ACC ([6]; 48 h exposure): 8.389 µM
HIT−CALL [6]: 1
Development Toxicant Classification [7]: Positive
Classification [7]: Teratogen
DT Class. ([7]; chemicals common with hPST): Pos

SMILES: O=C1Cc2cc(CCN3CCN(c4nsc5ccccc45)CC3)c(Cl)cc2N1 [Ziprasidone]
CC50 at 48 h [1]: 2.42 µM
Emax (RUES2-GLR cells): 93.7%
Cell Count ACC (RUES2-GLR cells; human, 48 h): 1.527 µM
hPST TC50 (H9 human ESC line; [9]): 5.1 µM
hPST TC50 (H9 human ESC line; hPST cytotoxicity): 5.1 µM
IC50 [3]: 2.8 µM
AC50 [4]: 3.67 µM
Emax [4]: 4.2%
MAX_MEAN [4]: 4.63 Percent Activity
MAX_MED [4]: 4.3 Percent Activity
Emax [5, 10]: 3.27%
Emax [5, 11]: 4.35%
HIT−CALL [5]: 0
AC50 [6, 12]: 3.57 µM
Emax [6, 13]: 101%
Emax [6, 14]: 101%
Emax [6, 15]: 101%
AC50 [6, 16]: 3.56 µM
Emax [6, 17]: 101%
Hit Call [6]: Positive
DevTox ACC ([6]; 48 h exposure): 2.997 µM
HIT−CALL [6]: 1
Development Toxicant Classification [7]: Positive
Classification [7]: Teratogen
DT Class. ([7]; chemicals common with hPST): Pos

The next lines start with results.

Cell Count ACC (RUES2-GLR cells; human, 48 h): >200 µM
SMILES: CC(=O)Oc1ccccc1C(=O)O [Aspirin]
CC50 at 48 h [1, 8]: > 200 µM
Emax (RUES2-GLR cells): 2.85%
HIT−CALL [2]: 1
MAX_MEAN [2]: 1.04 Percent Activity
MAX_MED [2]: 1.03 Percent Activity
hPST TC50 (H9 human ESC line; [9]): >200 µM
hPST TC50 (H9 human ESC line; hPST cytotoxicity): > 200 µM
IC50 [3]: > 200 µM
MAX_MEAN [4]: 0.503 Percent Activity
MAX_MED [4]: 0.512 Percent Activity
Emax [5, 10]: -3.36%
Emax [5, 11]: -3.07%
HIT−CALL [5]: 0
AC50 [6, 12]: > 200 µM
Emax [6, 13]: 12.4%
Emax [6, 14]: 13.1%
Emax [6, 15]: 12.4%
Hit Call [6]: Negative
DevTox ACC ([6]; 48 h exposure): >200 µM
HIT−CALL [6]: 0
Development Toxicant Classification [7]: Negative
Classification [7]: Non-Teratogen
DT Class. ([7]; chemicals common with hPST): Neg
DT Class. ([7]; chemicals common with quickPredict): Neg
Developmental Toxicant Classification ([7]; reference chemicals): Negative

Cell Count ACC (RUES2-GLR cells; human, 48 h): >200 µM
SMILES: C[C@](N)(Cc1ccc(O)c(O)c1)C(=O)O [Methyldopa]
CC50 at 48 h [1, 8]: > 200 µM
Emax (RUES2-GLR cells): 10.2%
HIT−CALL [2]: 0
MAX_MEAN [2]: 0.823 Percent Activity
MAX_MED [2]: 0.851 Percent Activity
hPST TC50 (H9 human ESC line; [9]): 462 µM
hPST TC50 (H9 human ESC line; hPST cytotoxicity): 462 µM
IC50 [3]: 272 µM
MAX_MEAN [4]: 4.03 Percent Activity
MAX_MED [4]: 0.534 Percent Activity
Emax [5, 10]: 13.8%
Emax [5, 11]: 12.9%
HIT−CALL [5]: 0
hit call designation (in words) [6]: false positive
AC50 [6, 12]: 113 µM
Emax [6, 13]: 23.5%
Emax [6, 14]: 19.9%
Emax [6, 15]: 23.5%
AC50 [6, 16]: 112 µM
Emax [6, 17]: 30.9%
Hit Call [6]: Positive
DevTox ACC ([6]; 48 h exposure): 217.84 µM
AC50 [6, 18]: 113 µM
HIT−CALL [6]: 1
Development Toxicant Classification [7]: Negative
Classification [7]: Non-Teratogen
DT Class. ([7]; chemicals common with hPST): Neg

Cell Count ACC (RUES2-GLR cells; human, 48 h): >200 µM
SMILES: O=C(O)c1cccnc1 [Niacin, Nicotinic acid]
CC50 at 48 h [1]: > 200 µM
Emax (RUES2-GLR cells): 10.8%
HIT−CALL [2]: 0
MAX_MEAN [2]: 0.818 Percent Activity
MAX_MED [2]: 0.865 Percent Activity
hPST TC50 (H9 human ESC line; [9]): >200 µM
hPST TC50 (H9 human ESC line; hPST cytotoxicity): > 200 µM
IC50 [3]: > 200 µM
MAX_MEAN [4]: 0.611 Percent Activity
MAX_MED [4]: 0.561 Percent Activity
Emax [5, 10]: 11.3%
Emax [5, 11]: 11.4%
HIT−CALL [5]: 0
AC50 [6, 12]: > 200 µM
Emax [6, 13]: 6.06%
Emax [6, 14]: 5.21%
Emax [6, 15]: 6.06%
Hit Call [6]: Negative
HIT−CALL [6]: 0
Development Toxicant Classification [7]: Negative
Classification [7]: Non-Teratogen
DT Class. ([7]; chemicals common with hPST): Neg

Cell Count ACC (RUES2-GLR cells; human, 48 h): >200 µM
SMILES: CC1(C)S[C@@H]2[C@H](NC(=O)Cc3ccccc3)C(=O)N2[C@H]1C(=O)O [Penicillin G]
CC50 at 48 h [1]: > 200 µM
Emax (RUES2-GLR cells): 13.3%
HIT−CALL [2]: 0
MAX_MEAN [2]: 0.857 Percent Activity
MAX_MED [2]: 0.92 Percent Activity
hPST TC50 (H9 human ESC line; [9]): >400 µM
hPST TC50 (H9 human ESC line; hPST cytotoxicity): > 400 µM
IC50 [3]: > 400 µM
MAX_MEAN [4]: 2.17 Percent Activity
MAX_MED [4]: 0.88 Percent Activity
Emax [5, 10]: 13.2%
Emax [5, 11]: 12.4%
HIT−CALL [5]: 0
AC50 [6, 12]: > 200 µM
Emax [6, 13]: 10.3%
Emax [6, 14]: 12.2%
Emax [6, 15]: 10.3%
Hit Call [6]: Negative
DevTox ACC ([6]; 48 h exposure): >200 µM
HIT−CALL [6]: 0
